From patent publication US20240279302A1, “OLFACTORY RECEPTOR EXPRESSING METHOD AND RESPONSE MEASUREMENT METHOD” (Kao Corporation, priority 2021, published 2024)
Like-named read-outs stand apart in the source and are kept apart here.

Assays:
Assay in all cases: Luciferase assay, sulfur compounds
Format in all cases: cell-based
consensus OR12D3 = molecular target: T1, consensus OR12D3 (Homo sapiens, UniProt Q9UGF7, A145V/C216Y/C85S/G168H/G17S/G27V/H163R/I149T/M273V/M276I/M298L/M46I/M7V/S165N/S188G/S42A/S70C/S86T/V219I/V48I/V84L/Y177C); conditions: in the presence of a copper ion
T1 construct: expressed in transfected cells; host or cells: HEK293
T1 sequence (Q9UGF7 1-315 M7V/G17S/G27V/S42A/M46I/V48I/S70C/V84L/C85S/S86T/A145V/I149T/H163R/S165N/G168H/Y177C/S188G/C216Y/V219I/M273V/M276I/M298L): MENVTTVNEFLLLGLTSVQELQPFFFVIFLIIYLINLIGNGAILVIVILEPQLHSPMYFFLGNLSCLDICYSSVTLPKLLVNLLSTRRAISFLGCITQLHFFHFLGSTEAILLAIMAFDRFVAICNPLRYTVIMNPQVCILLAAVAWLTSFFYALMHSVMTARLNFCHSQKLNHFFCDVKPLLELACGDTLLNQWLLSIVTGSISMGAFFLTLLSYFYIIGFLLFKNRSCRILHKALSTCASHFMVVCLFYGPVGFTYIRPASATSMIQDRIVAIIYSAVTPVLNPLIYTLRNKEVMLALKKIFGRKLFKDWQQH
Description: (§1) A reaction solution as to each consensus olfactory receptor prepared in Examples described above was prepared according to the composition shown in Table 4, left standing for 20 minutes in a clean bench, and then added to each well of a 96-well plate (Becton, Dickinson and Company). The original olfactory receptor was used as to OR4S2. Composition shown in Table 20 was used as to OR11H2 and OR4E2. Subsequently, 100 μL of HEK293 cells suspended in DMEM (Nacalai Tesque, Inc.) was inoculated at 2×10^5 cells/cm^2 to each well, and cultured for 24 hours in an incubator kept at 37° C. and 5% CO2. Cells expressing no olfactory receptor (Mock) were provided as a control.
(§2) The medium was removed from the cultures prepared in 1), and 75 μL of a test substance solution (methyl mercaptan (MeSH) (CAS: 74-93-1, Tokyo Chemical Industry Co., Ltd.), dimethyl sulfide (DMS) (CAS: 75-18-3, FUJIFILM Wako Pure Chemical Corp.), dimethyl disulfide (DMDS) (CAS: 624-92-0, Tokyo Chemical Industry Co., Ltd.), concentration range: 0 μM, 1 μM, 3 μM, 10 μM, 30 μM, 100 μM, and 300 μM, or dimethyl trisulfide (DMTS) (CAS: 3658-80-8, Tokyo Chemical Industry Co., Ltd.), concentration range: 0 μM, 0.1 μM, 0.3 μM, 1 μM, 3 μM, 10 μM, and 30 μM) prepared with a fresh medium was added thereto. Under a copper ion addition condition, the test substance solution was adjusted to contain 30 μM copper(II) chloride (FUJIFILM Wako Pure Chemical Corp.) in addition to the odorant. The cells were cultured for 4 hours in a CO2 incubator and the luciferase gene was expressed sufficiently in the cells. Luciferase activity was measured using Dual-Glo™ luciferase assay system (Promega Corp.) in accordance with the operation manual of the product. A luminescence value derived from firefly luciferase induced by test substance stimulation in each well of the 96-well plate was divided by a luminescence value derived from Renilla luciferase to calculate a value (fluc/hRluc) as a signal, which was then used in analysis. The signal under each transfection condition was normalized with the signal value (fluc/hRluc) under an odorant stimulation-free condition defined as 0% and the signal value (fluc/hRluc) by stimulation with 10 μM forskolin defined as 100%, and used as a response (%) in analysis.

consensus OR2T4 = molecular target: T2, consensus OR2T4 (Homo sapiens, UniProt Q8NH00, A104M/A342V/C83S/E340G/F135L/G202R/G259R/I245V/L252F/L277M/L47V/N218K/R201C/S177A/T338N/V244T/V317L)
T2 construct: expressed in transfected cells; host or cells: HEK293
T2 sequence (Q8NH00 with tags, fused parts or gaps L47V/C83S/A104M/F135L/S177A/R201C/G202R/N218K/V244T/I245V/L252F/G259R/L277M/V317L/T338N/E340G/A342V): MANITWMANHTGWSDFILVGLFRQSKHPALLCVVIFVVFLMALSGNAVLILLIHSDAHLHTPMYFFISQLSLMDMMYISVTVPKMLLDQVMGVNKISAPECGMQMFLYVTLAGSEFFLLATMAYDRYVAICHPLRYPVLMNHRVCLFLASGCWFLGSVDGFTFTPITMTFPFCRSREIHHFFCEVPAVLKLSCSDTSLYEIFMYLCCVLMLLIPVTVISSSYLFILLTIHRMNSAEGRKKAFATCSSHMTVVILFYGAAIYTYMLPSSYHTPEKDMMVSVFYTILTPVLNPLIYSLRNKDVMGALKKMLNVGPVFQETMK
Description: as §1, §2

consensus OR4E2 = molecular target: T3, consensus OR4E2 (Homo sapiens, UniProt Q8NGC2, A48T/F285L/G158V/H228Q/I116T/I142V/I197M/I47V/L183P/M219T/M25I/M36V/Q234R/R21W/S209T/S40L/S54R/T201S/T49I/T99A/V118M/V214L); conditions: for dose dependence of the response of consensus OR4E2 / response of consensus OR4E2: in the presence of a copper ion
T3 construct: Flag (N); Rho tag (N); expressed in transfected cells; host or cells: HEK293
T3 sequence (Q8NGC2 1-312 R21W/M25I/M36V/S40L/I47V/A48T/T49I/S54R/T99A/I116T/V118M/I142V/G158V/L183P/I197M/T201S/S209T/V214L/M219T/H228Q/Q234R/F285L limits assumed): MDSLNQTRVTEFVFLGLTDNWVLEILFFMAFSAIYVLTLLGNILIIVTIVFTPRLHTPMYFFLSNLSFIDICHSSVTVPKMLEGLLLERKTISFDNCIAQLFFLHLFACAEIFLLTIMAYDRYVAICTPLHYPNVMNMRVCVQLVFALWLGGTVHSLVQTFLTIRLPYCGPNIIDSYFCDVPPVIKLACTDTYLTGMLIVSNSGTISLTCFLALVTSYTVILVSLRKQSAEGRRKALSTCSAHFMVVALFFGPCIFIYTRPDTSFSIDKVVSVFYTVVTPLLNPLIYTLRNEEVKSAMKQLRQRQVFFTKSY
Description: as §1, §2

consensus OR6B3 = molecular target: T4, consensus OR6B3 (Homo sapiens, UniProt Q8NGW1, A219G/C161Y/C234R/F239S/F305L/G10S/I281L/L135I/L142V/M157V/M215V/P138T/Q89R/R8K/S64G/T78I/V136M/V15L/V166A/V250I)
T4 construct: expressed in transfected cells; host or cells: HEK293
T4 sequence (Q8NGW1 with tags, fused parts or gaps R8K/G10S/V15L/S64G/T78I/Q89R/L135I/V136M/P138T/L142V/M157V/C161Y/V166A/M215V/A219G/C234R/F239S/V250I/I281L/F305L): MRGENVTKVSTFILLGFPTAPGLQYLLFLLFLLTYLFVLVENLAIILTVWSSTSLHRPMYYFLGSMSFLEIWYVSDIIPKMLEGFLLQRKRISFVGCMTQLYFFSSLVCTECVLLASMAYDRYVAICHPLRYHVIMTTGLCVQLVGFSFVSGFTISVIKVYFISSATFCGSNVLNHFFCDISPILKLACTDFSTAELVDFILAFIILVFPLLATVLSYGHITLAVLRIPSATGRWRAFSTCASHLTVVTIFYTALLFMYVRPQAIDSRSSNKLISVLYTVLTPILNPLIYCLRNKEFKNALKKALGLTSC
Description: as §1, §2

[1] = in the presence of a copper ion

| Compound | response of consensus OR12D3 (consensus OR12D3) | response of consensus OR2T4 (consensus OR2T4; [1]) | EC50 (consensus OR4E2) [µM] | dose dependence of the response of consensus OR4E2 (consensus OR4E2) | response of consensus OR4E2 (consensus OR4E2) | EC50 (consensus OR6B3) [mM] | dose dependence of the response of consensus OR6B3 (consensus OR6B3; [1]) | response of consensus OR6B3 (consensus OR6B3; [1]) | EC50 (consensus OR4E2; consensus OR4E2, 30 μM CuCl2, read-out: EC50(μM) with 30 μM CuCl2) [µM] | EC50 (consensus OR2T4) [µM] | dose dependence of the response of consensus OR2T4 (consensus OR2T4; [1]) |
| --- | --- | --- | --- | --- | --- | --- | --- | --- | --- | --- | --- |
| CSSC [dimethyl disulfide] | responded | responded | 397 | dose-dependent response | responded | 1.6 | dose-dependent response | responded |  |  |  |
| CSSSC [dimethyl trisulfide] | responded | responded |  | dose-dependent response | responded |  |  | responded | 33 |  |  |
| CS [methyl mercaptan] | responded | responded | 250 | dose-dependent response | responded |  |  | responded |  | 340 | dose-dependent response |
